# Measured values taken from patent US12391675B2, “NLRP3 modulators” (INNATE TUMOR IMMUNITY, INC., priority 2019, dated 2025).
# Target: T1, NLRP3 (Homo sapiens, UniProt Q96P20)
# T1 construct: host or cells: PMA-differentiated THP-1 cells
# Test: Measurement of IL-1β production in PMA-differentiated THP-1 cells (NLRP3 hIL1B EC50)
# Format: cell-based
# Description: Measurement of IL-1β Production in PMA-Differentiated THP-1 Cells
# THP-1 cells were purchased from the American Type Culture Collection and sub-cultured according to instructions from the supplier. Prior to experiments, cells were cultured in RPMI 1640 containing 10% heat inactivated FBS, penicillin (100 units/ml) and streptomycin (100 μg/ml), and maintained in log phase prior to experimental setup. Prior to the experiment THP-1 were treated with PMA (Phorbol 12-myristate 13-acetate) (10 μg/ml) for 24 hours. The day of the experiment the media was removed and attaching cells were treated with trypsin for 2 minutes, cells were then collected, washed with PBS (phosphate buffer saline), spin down, resuspended in 2% heat inactivated FBS with RPMI at a concentration of 1×10^6 cells/ml, and 100 μl was plated in a 96 well plate. Compounds were dissolved in dimethyl sulfoxide (DMSO) and added to the culture medium to achieve desired concentration (e.g. 100, 30, 10, 3, 1, 0.3 or 0.1 μM). Cells were incubated with compounds for 4 hours. Cell free supernatant was collected and the production of IL-1β was evaluated by ELISA. A vehicle only control was run concurrently with each experiment. Final DMSO concentration was 1%.
# Measurement of IL-1β Production in PMA-Differentiated THP-1 Cells (Alternative Procedure)
# THP-1 cells were purchased from the American Type Culture Collection and sub-cultured according to instructions from the supplier. Prior to experiments, cells were cultured in RPMI 1640 containing 10% heat inactivated FBS, penicillin (100 units/ml), streptomycin (100 μg/ml), HEPES (10 mM) and sodium pyruvate (1 mM) and maintained in log phase prior to experimental setup. Prior to the experiment, THP-1 cells were treated with PMA (Phorbol 12-myristate 13-acetate) (20 μg/ml) overnight. The day of the experiment, the media was removed and attached cells were treated with trypsin for 2 minutes, cells were then collected, washed with PBS (phosphate buffer saline), pelleted by centrifugation and resuspended in 2% heat inactivated FBS with RPMI at a concentration of 50,000 cells/well in a 384 well plate. Cell free supernatant was collected and the production of IL-1β was evaluated by ELISA. Compounds were dissolved in dimethyl sulfoxide (DMSO) and added to the culture medium to achieve desired concentration (e.g. 100, 30, 10, 3, 1, 0.3 or 0.1 μM). Cells were incubated with compounds for 2 hours. A vehicle only control was run concurrently with each experiment. Final DMSO concentration was 1%.
# Measurement of IL-1β Production—hTRF Protocol (Second Alternative Procedure)
# Serial dilutions of compounds in DMSO were added to low volume 384 well plates at 100 nl/well using an ECHO 550 acoustic dispenser (Labcyte) to achieve final starting concentration of 10 μM in assay.
# THP-1 cells in RPMI (Gibco, 11875) media with 10% FBS at a density of 1×10^6 cell/ml in a T175 flask were treated with a final concentration of phorbol 12-myristate 13-acetate (PMA) (Sigma, P1585) of 50 ng/ml overnight at 37° C. at 5% CO2 for differentiation. Cells were harvested the next day after rinsing well wth dPBS using 0.5% trypsin. A cell solution was prepared of 1×10^6 cells/ml for 50,000 cells in 50 μl/well in RPMI media with 2% FBS. Cells were plated using a multichannel pipette onto the compound dilutions in Greiner, 384 well, black clear bottom tissue culture treated plates (781090). The plates were incubated in 37° C. incubator at 5% CO2 for 2 hours.
# After the 2 hour incubation, the cell plates were spun in the centrifuge for 5 minutes at 1200 rpm. Using the Felix (CyBio), 8 μl of the supernatant was transferred to 384 well, low volume, white proxy plates. (Perkin Elmer, 6008230). A human IL1beta hTRF kit was used to analyze the supernatant (CISBIO, 62HIL1BPEG). The kit instructions were followed for preparing the IL1Beta standard curve and then the antibodies from the kit were diluted 1:40 rather than 1:20 as kit instructed. […]
# T1 sequence (Q96P20 whole entry): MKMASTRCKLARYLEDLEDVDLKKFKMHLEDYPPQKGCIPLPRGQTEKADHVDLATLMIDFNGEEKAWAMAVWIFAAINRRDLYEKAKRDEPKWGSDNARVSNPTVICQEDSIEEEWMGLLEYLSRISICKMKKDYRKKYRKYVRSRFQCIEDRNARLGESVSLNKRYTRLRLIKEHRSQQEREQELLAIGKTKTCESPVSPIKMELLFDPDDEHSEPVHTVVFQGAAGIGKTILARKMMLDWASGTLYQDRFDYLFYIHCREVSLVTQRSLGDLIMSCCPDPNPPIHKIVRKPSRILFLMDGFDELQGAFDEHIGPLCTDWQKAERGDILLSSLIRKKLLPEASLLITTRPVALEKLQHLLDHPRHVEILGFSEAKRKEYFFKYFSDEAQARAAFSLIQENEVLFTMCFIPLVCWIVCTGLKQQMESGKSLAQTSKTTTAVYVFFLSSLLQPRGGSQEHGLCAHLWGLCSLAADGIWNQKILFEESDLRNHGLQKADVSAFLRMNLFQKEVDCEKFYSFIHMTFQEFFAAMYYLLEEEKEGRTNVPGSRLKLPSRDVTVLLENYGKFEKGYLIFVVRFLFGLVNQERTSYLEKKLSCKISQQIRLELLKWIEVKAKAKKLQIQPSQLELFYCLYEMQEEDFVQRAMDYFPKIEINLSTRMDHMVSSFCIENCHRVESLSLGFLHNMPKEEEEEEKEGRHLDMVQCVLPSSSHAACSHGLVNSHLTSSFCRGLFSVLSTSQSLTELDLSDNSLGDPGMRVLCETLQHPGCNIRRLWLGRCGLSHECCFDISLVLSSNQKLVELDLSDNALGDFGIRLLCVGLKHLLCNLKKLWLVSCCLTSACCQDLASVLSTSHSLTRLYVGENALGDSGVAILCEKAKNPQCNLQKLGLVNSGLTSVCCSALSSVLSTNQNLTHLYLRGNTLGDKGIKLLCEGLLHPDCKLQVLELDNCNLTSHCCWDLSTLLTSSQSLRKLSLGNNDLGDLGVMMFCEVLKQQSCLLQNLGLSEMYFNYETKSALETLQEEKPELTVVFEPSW
row,Compound,EC50 [nM]
1,"Nc1cc(OCC23CCC(CC2)OC3)c2ccc(-c3cc[nH]n3)cc2n1 [Example 47, 4-((2-oxabicyclo[2.2.2]octan-4-yl)methoxy)-7-(1H-pyrazol-3-yl)quinolin-2-amine]",320
2,Nc1nc(N[C@H]2C[C@@H]3C[C@H]2C[C@H]3O)c2ccc(-c3ccn[nH]3)cc2n1 (racemic) [Example 42],740
3,Nc1cc(N2C3CCC2COC3)c2ccc(-c3ccn[nH]3)cc2n1 [Example 22],2000
4,Nc1cc(N[C@H]2[C@@H]3COC[C@@H]32)c2ccc(-c3ccn[nH]3)cc2n1 [Example 20],110
5,CCN1CCC2(CCN(c3nc(N)nc4cc(-c5cc[nH]n5)ccc34)C2)C1 (stereo not drawn) [Example 38],2580
6,"COC(=O)C12CCC(CNc3cc(N)nc4cc(-c5cc[nH]n5)ccc34)(CC1)CC2 [Example 50, methyl 4-(((2-amino-7-(1H-pyrazol-3-yl)quinolin-4-yl)amino)methyl)bicyclo[2.2.2]octane-1-carboxylate]",1730
7,Nc1nc(NCC2C[C@H]3CC[C@@H]2CC3)c2ccc(-c3cc[nH]n3)cc2n1 (stereo partly drawn) [Example 39],860
8,"Nc1cc(N[C@@H]2C[C@H]3C[C@@H]2[C@@H](O)C3)c2ccc(-c3ccn[nH]3)cc2n1 (racemic) [Example 46, rac-(1S,2S,4R,6R)-6-((2-amino-7-(1H-pyrazol-5-yl)quinolin-4-yl)amino)bicyclo[2.2.1]heptan-2-ol]",1330
9,"Nc1cc(N[C@@H]2C[C@H]3C[C@@H](O)C[C@H]3C2)c2ccc(-c3ccn[nH]3)cc2n1 [Example 14, (2r,3aR,5r,6aS)-5-((2-amino-7-(1H-pyrazol-5-yl)quinolin-4-yl)amino)octahydropentalen-2-ol]",640
10,Nc1cc(NC2CC3(CC(O)C3)C2)c2ccc(-c3ccn[nH]3)cc2n1 (stereo not drawn) [Example 21],880
11,Nc1nc(N[C@@H]2C[C@H]3CC[C@]2(CO)O3)c2ccc(-c3ccn[nH]3)cc2n1 (racemic) [Example 8],3700
12,Nc1cc(NC23CC(C2)C3)c2ccc(-c3ccn[nH]3)cc2n1 [Example 19],320
13,Nc1nc(NC2CC3(CC3)C2)c2ccc(-c3cc[nH]n3)cc2n1 [Example 37],300
14,"Nc1cc(NCC23CCC(CO)(CC2)OC3)c2ccc(-c3ccsc3)cc2n1 [Example 51, (4-(((2-amino-7-(thiophen-3-yl)quinolin-4-yl)amino)methyl)-2-oxabicyclo[2.2.2]octan-1-yl)methanol]",1860
15,"Nc1cc(NC2COCCC23OCCO3)c2ccc(-c3cc[nH]n3)cc2n1 (stereo not drawn) [Example 33, 7-(1H-pyrazol-3-yl)-N4-(1,4,8-trioxaspiro[4.5]decan-6-yl)quinoline-2,4-diamine]",17400

# Second part, the compound after the results:
row,EC50 [nM],Compound
1,980,"Nc1cc(N[C@H]2C3CCC(C3)[C@H]2CO)c2ccc(-c3ccn[nH]3)cc2n1 (single isomer, unassigned) [Example 18B]"
2,1940,"CC(C)(C)OC(=O)N1CCC2(CC1)CC2Nc1nc(N)nc2cc(-c3cc[nH]n3)ccc12 (single isomer, unassigned) [Example 28A]"
3,250,"Nc1cc(NC2CC3(CC(O)C3)C2)c2ccc(-c3ccn[nH]3)cc2n1 (single isomer, unassigned) [Example 26B, (Ra)-6-(2-amino-7-(1H-pyrazol-5-yl)quinolin-4-ylamino)spiro[3.3]heptan-2-ol]"
4,960,"Nc1nc(NC2CC3CC(O)C2C3)c2ccc(-c3ccn[nH]3)cc2n1 (single isomer, unassigned) [Example 41B]"
5,30,"Nc1cc(NC2CC3(CC(O)C3)C2)c2ccc(-c3ccn[nH]3)cc2n1 (single isomer, unassigned) [Example 26A, (Sa)-6-(2-amino-7-(1H-pyrazol-5-yl)quinolin-4-ylamino)spiro[3.3]heptan-2-ol]"
6,250,"Nc1cc(N[C@H]2C[C@@H]3C[C@@H](O)[C@H]2O3)c2ccc(-c3ccn[nH]3)cc2n1 (single isomer, unassigned) [Example 32B]"
